Legend:
[1] = 101.33 kPa, Liquid, Capillary tube (Ostwald / Ubbelohde) method
[2] = xn = mol fraction of the nth substance listed; settings: 101 kPa, Liquid, Capillary tube (Ostwald / Ubbelohde) method

CC(C)CCl [1-chloro-2-methylpropane]
[1]
Settings | kinematic viscosity [m2/s]
283.15 K | 5.8e-07
298.15 K | 4.929e-07
313.15 K | 4.363e-07

CC(C)CCl [1-chloro-2-methylpropane] + CCC(C)CC
kinematic viscosity [m2/s], [2]
Settings | 283.15 K | 298.15 K | 313.15 K
x2 = 0.0522 | 5.703e-07 | 4.87e-07 | 4.322e-07
x2 = 0.1013 | 5.618e-07 | 4.823e-07 | 4.275e-07
x2 = 0.2024 | 5.464e-07 | 4.717e-07 | 4.187e-07
x2 = 0.3032 | 5.324e-07 | 4.631e-07 | 4.113e-07
x2 = 0.4028 | 5.212e-07 | 4.55e-07 | 4.048e-07
x2 = 0.5056 | 5.115e-07 | 4.484e-07 | 3.994e-07
x2 = 0.604 | 5.043e-07 | 4.43e-07 | 3.951e-07
x2 = 0.7018 | 4.988e-07 | 4.396e-07 | 3.918e-07
x2 = 0.8002 | 4.949e-07 | 4.37e-07 | 3.896e-07
x2 = 0.898 | 4.93e-07 | 4.357e-07 | 3.881e-07
x2 = 0.9486 | 4.927e-07 | 4.355e-07 | 3.879e-07

CC(C)CCl [1-chloro-2-methylpropane] + CCCCCC
kinematic viscosity [m2/s], [2]
Settings | 283.15 K | 298.15 K | 313.15 K
x2 = 0.0512 | 5.712e-07 | 4.863e-07 | 4.32e-07
x2 = 0.0999 | 5.631e-07 | 4.817e-07 | 4.282e-07
x2 = 0.2003 | 5.468e-07 | 4.711e-07 | 4.196e-07
x2 = 0.2993 | 5.339e-07 | 4.633e-07 | 4.128e-07
x2 = 0.4005 | 5.239e-07 | 4.566e-07 | 4.077e-07
x2 = 0.4977 | 5.171e-07 | 4.517e-07 | 4.041e-07
x2 = 0.598 | 5.12e-07 | 4.478e-07 | 4.017e-07
x2 = 0.6993 | 5.089e-07 | 4.462e-07 | 4.01e-07
x2 = 0.799 | 5.077e-07 | 4.455e-07 | 4.002e-07
x2 = 0.8967 | 5.092e-07 | 4.457e-07 | 4.006e-07
x2 = 0.9472 | 5.103e-07 | 4.474e-07 | 4.023e-07

CC(C)CCl [1-chloro-2-methylpropane] + CCCCCCC
kinematic viscosity [m2/s], [2]
Settings | 283.15 K | 298.15 K | 313.15 K
x2 = 0.0507 | 5.818e-07 | 4.95e-07 | 4.381e-07
x2 = 0.0979 | 5.817e-07 | 4.97e-07 | 4.396e-07
x2 = 0.2004 | 5.851e-07 | 5.015e-07 | 4.438e-07
x2 = 0.3008 | 5.905e-07 | 5.064e-07 | 4.483e-07
x2 = 0.3993 | 5.97e-07 | 5.134e-07 | 4.536e-07
x2 = 0.4999 | 6.054e-07 | 5.215e-07 | 4.599e-07
x2 = 0.5973 | 6.156e-07 | 5.306e-07 | 4.663e-07
x2 = 0.6994 | 6.268e-07 | 5.403e-07 | 4.733e-07
x2 = 0.8006 | 6.397e-07 | 5.516e-07 | 4.809e-07
x2 = 0.9002 | 6.538e-07 | 5.633e-07 | 4.894e-07
x2 = 0.9491 | 6.615e-07 | 5.692e-07 | 4.94e-07

CCCCCl [1-chlorobutane]
[1]
Settings | kinematic viscosity [m2/s]
283.15 K | 5.564e-07
298.15 K | 4.785e-07
313.15 K | 4.216e-07

CCCCCl [1-chlorobutane] + CCCCCC
kinematic viscosity [m2/s], [2]
Settings | 283.15 K | 298.15 K | 313.15 K
x1 = 0.0508 | 5.501e-07 | 4.74e-07 | 4.182e-07
x1 = 0.0992 | 5.449e-07 | 4.701e-07 | 4.169e-07
x1 = 0.1972 | 5.351e-07 | 4.634e-07 | 4.118e-07
x1 = 0.2966 | 5.269e-07 | 4.577e-07 | 4.08e-07
x1 = 0.3976 | 5.198e-07 | 4.531e-07 | 4.048e-07
x1 = 0.5009 | 5.145e-07 | 4.495e-07 | 4.027e-07
x1 = 0.6006 | 5.112e-07 | 4.467e-07 | 4.011e-07
x1 = 0.6982 | 5.092e-07 | 4.451e-07 | 4.005e-07
x1 = 0.7972 | 5.082e-07 | 4.455e-07 | 4.01e-07
x1 = 0.8979 | 5.094e-07 | 4.464e-07 | 4.023e-07
x1 = 0.9472 | 5.103e-07 | 4.474e-07 | 4.027e-07

CCCCCl [1-chlorobutane] + CCCCCCC
kinematic viscosity [m2/s], [2]
Settings | 283.15 K | 298.15 K | 313.15 K
x1 = 0.0508 | 5.595e-07 | 4.824e-07 | 4.248e-07
x1 = 0.1017 | 5.632e-07 | 4.857e-07 | 4.278e-07
x1 = 0.1981 | 5.703e-07 | 4.927e-07 | 4.335e-07
x1 = 0.2989 | 5.788e-07 | 5e-07 | 4.396e-07
x1 = 0.4022 | 5.882e-07 | 5.088e-07 | 4.471e-07
x1 = 0.4998 | 5.984e-07 | 5.177e-07 | 4.545e-07
x1 = 0.6008 | 6.102e-07 | 5.278e-07 | 4.624e-07
x1 = 0.6989 | 6.229e-07 | 5.386e-07 | 4.705e-07
x1 = 0.7985 | 6.367e-07 | 5.501e-07 | 4.792e-07
x1 = 0.898 | 6.52e-07 | 5.626e-07 | 4.882e-07
x1 = 0.9498 | 6.608e-07 | 5.692e-07 | 4.935e-07

CCC(C)(C)C [2,2-dimethylbutane]
[1]
Settings | kinematic viscosity [m2/s]
283.15 K | 6.234e-07
298.15 K | 5.206e-07
313.15 K | 4.579e-07

CCC(C)(C)C [2,2-dimethylbutane] + CC(C)(C)Cl
kinematic viscosity [m2/s], [2]
Settings | 283.15 K | 298.15 K | 313.15 K
x1 = 0.0499 | 6.937e-07 | 5.657e-07 | 4.748e-07
x1 = 0.1017 | 6.864e-07 | 5.592e-07 | 4.715e-07
x1 = 0.1983 | 6.729e-07 | 5.493e-07 | 4.664e-07
x1 = 0.3004 | 6.6e-07 | 5.405e-07 | 4.607e-07
x1 = 0.399 | 6.491e-07 | 5.333e-07 | 4.568e-07
x1 = 0.4989 | 6.399e-07 | 5.275e-07 | 4.538e-07
x1 = 0.6017 | 6.32e-07 | 5.225e-07 | 4.522e-07
x1 = 0.7034 | 6.27e-07 | 5.2e-07 | 4.518e-07
x1 = 0.8 | 6.228e-07 | 5.18e-07 | 4.519e-07
x1 = 0.8967 | 6.221e-07 | 5.184e-07 | 4.541e-07
x1 = 0.9504 | 6.224e-07 | 5.19e-07 | 4.556e-07

CCC(C)(C)C [2,2-dimethylbutane] + CC(C)CCl
kinematic viscosity [m2/s], [2]
Settings | 283.15 K | 298.15 K | 313.15 K
x1 = 0.0487 | 5.82e-07 | 4.94e-07 | 4.366e-07
x1 = 0.0994 | 5.816e-07 | 4.941e-07 | 4.365e-07
x1 = 0.1995 | 5.814e-07 | 4.939e-07 | 4.362e-07
x1 = 0.2985 | 5.821e-07 | 4.939e-07 | 4.363e-07
x1 = 0.3993 | 5.834e-07 | 4.942e-07 | 4.366e-07
x1 = 0.5018 | 5.866e-07 | 4.958e-07 | 4.38e-07
x1 = 0.6011 | 5.899e-07 | 4.986e-07 | 4.402e-07
x1 = 0.6985 | 5.953e-07 | 5.025e-07 | 4.439e-07
x1 = 0.7995 | 6.024e-07 | 5.071e-07 | 4.476e-07
x1 = 0.8988 | 6.115e-07 | 5.13e-07 | 4.524e-07
x1 = 0.9479 | 6.158e-07 | 5.163e-07 | 4.542e-07

CCC(C)(C)C [2,2-dimethylbutane] + CCC(C)Cl
kinematic viscosity [m2/s], [2]
Settings | 283.15 K | 298.15 K | 313.15 K
x1 = 0.0448 | 5.266e-07 | 4.621e-07 | 4.07e-07
x1 = 0.0993 | 5.3e-07 | 4.64e-07 | 4.086e-07
x1 = 0.2003 | 5.356e-07 | 4.679e-07 | 4.12e-07
x1 = 0.301 | 5.421e-07 | 4.719e-07 | 4.157e-07
x1 = 0.3993 | 5.494e-07 | 4.761e-07 | 4.2e-07
x1 = 0.4989 | 5.579e-07 | 4.815e-07 | 4.251e-07
x1 = 0.6039 | 5.683e-07 | 4.88e-07 | 4.309e-07
x1 = 0.7002 | 5.793e-07 | 4.949e-07 | 4.368e-07
x1 = 0.8033 | 5.935e-07 | 5.036e-07 | 4.438e-07
x1 = 0.9028 | 6.07e-07 | 5.122e-07 | 4.508e-07
x1 = 0.9518 | 6.147e-07 | 5.165e-07 | 4.546e-07

From the NIST ThermoML archive (doi:10.1021/je200213h)
